Assay results from PMC3975393, “Structure of N-Terminal Sequence Asp-Ala-Glu-Phe-Arg-His-Asp-Ser of Aβ-Peptide with Phospholipase A2 from Venom of Andaman Cobra Sub-Species Naja naja sagittifera at 2.0 Å Resolution” (International Journal of Molecular Sciences, 2014).

Test system: PLA2
Experiment: X-ray co-crystal structure of the complex with PLA2 (PDB 3JQ5)
Type: binding, Naja naja sagittifera
Settings: 2.0 Å resolution, peptide at 10-fold high molar concentration, 10 mM sodium phosphate pH 6.0, 1 mM CaCl2, 3 h incubation
Procedure: The lyophilized samples of crude cobra venom of Naja naja sagittifera were obtained from Irula Snake Catchers Industrial Cooperative Society, Chennai, India. The crude venom was dissolved in 50 mM Tris-HCl, 100 mM NaCl, pH 7.0 at 100 mg/mL concentration and centrifuged at 12,000× g for 10 min to remove insoluble material. The collected supernatant was size fractionated on Sephadex G-100 column (100 × 2 cm) pre-equilibrated with 50 mM Tris-HCl, 100 mM NaCl, pH 7.0. The column was eluted with the same buffer at a flow rate of 6 mL/h. The peak corresponding to molecular weight of 14 kDa on SDS-PAGE and showing PLA2 activity was pooled for further purification. The pooled fractions were desalted and dialysed against 50 mM Tris-HCl, pH 7.0 and loaded on CM Sephadex C-50 column (Pharmacia, Uppsala, Sweden). The column was washed with the above buffer. The unbound fractions were pooled and dialysed against ammonium acetate buffer, pH 6.0. […] The N-terminal sequence of the first 15 residues was determined. […]
The crystal structure was determined with molecular replacement method using auto-AMoRe from the CCP4 software suit (Collaborative Computational Project, Number 4, 1994). […] The rotation and translation functions calculated with data in the resolution range, 12.0–3.5 Å yielded a unique solution with the first peak being very distinct. […]

With “Asp-Ala-Glu-Phe-Arg-His-Asp-Ser [DAEFRHDS]” the “binding in the substrate binding site / hydrophobic channel of PLA2” value was “strongly interacted with the non-polar binding-cavity residues of PLA2” and the “binding in the substrate binding site / hydrophobic channel of PLA2” value (listed as octa-peptide) was “fitted well in the substrate binding site of enzyme”.
